assay: recombinant UMI read abundance after kanamycin selection (control-corrected) (log10(CPM+1)); higher = more efficient recombination; extreme values may be limits of the assay; sequences stand for … in AGTGCAGAGAAAATCGGCCAGTTTTCTCTGCCTGCAGTCCGCATGCCGTGGGACCCCTTGGGTTCTAACCTGTTGCCTAGATTTATGCAGCGGACTGCCTTTCTCCCAAAGTGATAAACCGG…AGGTTGGTTTCACT; site = the 11-nt donor
How it was run: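 The measure is log10(CPM+1) for recombinant UMIs. These were PCR-amplified across the donor–target junction and sequenced after Escherichia coli carrying a donor and donor-binding-loop pair library and a target plasmid with T7-inducible IS621 bridge recombinase was plated on IPTG (0.07 mM) plus kanamycin or unselected. CPM were averaged over two replicates and scaled by control-derived factors.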
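Further: IS621 bridge recombinase in Escherichia coli cells against a fixed T5 target plasmid.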

Sequence | recombinant UMI read abundance (log10)
CGGGCATCATGGACCGGTTTTCCCGGTAATCCGTATTTGCT (site CGGACATCTAG) | 0.763
CGGGCATCATGGACCGGTTTTCCCGGTAATCCGTATTTGCT (site CGGCCATCTAG) | 0
CGGGCATCATGGACCGGTTTTCCCGGTAATCCGTATTTGCT (site CGGGCATCTAG) | 1.86
CGGGCATCATGGACCGGTTTTCCCGGTAATCCGTATTTGCT (site CGGTCATCTAG) | 0
CGGGCATCATGGACCGGTTTTCCCGGTAATCCGTATTTGTA (site CGGGCATCTTA) | 2.38
CGGGCTGCATGGACCGGTTTTCCCGGTAATCCGTATTTGAG (site CGGGCTGCTCT) | 1.37
CGGGGATCATGGACCGGTTTTCCCGGTAATCCGTATTTGTT (site CGGGGATCTAA) | 2.63
CGGGTCCCATGGACCGGTTTTCCCGGTAATCCGTATTTGCC (site CGGGTCCCTGG) | 1.39
CGGTACCCATGGACCGGTTTTCCCGGTAATCCGTATTTGGT (site CGGTACCCTAC) | 0.0101
CGGTAGACATGGACCGGTTTTCCCGGTAATCCGTATTTGAG (site CGATAGACTCT) | 2.01
CGGTAGACATGGACCGGTTTTCCCGGTAATCCGTATTTGAG (site CGCTAGACTCT) | 0.37
CGGTAGACATGGACCGGTTTTCCCGGTAATCCGTATTTGAG (site CGGTAGACTCT) | 1.9
CGGTAGACATGGACCGGTTTTCCCGGTAATCCGTATTTGAG (site CGTTAGACTCT) | 0.371
CGGTAGTCATGGACCGGTTTTCCCGGTAATCCGTATTTGTT (site CGGTAGTCTAA) | 3.15
CGGTATCCATGGACCGGTTTTCCCGGTAATCCGTATTTGCG (site CGGTATCCTCG) | 0.378
CGGTATCCATGGACCGGTTTTCCCGGTAATCCGTATTTGTC (site CGGAATCCTAA) | 0.00431

Sequence | recombinant UMI read abundance (log10)
CGGTATCCATGGACCGGTTTTCCCGGTAATCCGTATTTGTC (site CGGTATCCTGA) | 0
CGGTCAGCATGGACCGGTTTTCCCGGTAATCCGTATTTGCT (site CGATCATCTAG) | 0
CGGTCAGCATGGACCGGTTTTCCCGGTAATCCGTATTTGCT (site CGGTCAGCTAG) | 1.12
CGGTCGACATGGACCGGTTTTCCCGGTAATCCGTATTTGGG (site CAGTCGACTCC) | 0.0262
CGGTCGACATGGACCGGTTTTCCCGGTAATCCGTATTTGGG (site CCGTCGACTCC) | 0.0265
CGGTCGACATGGACCGGTTTTCCCGGTAATCCGTATTTGGG (site CGGTCGACTCC) | 0.018
CGGTCGACATGGACCGGTTTTCCCGGTAATCCGTATTTGGG (site CTGTCGACTCC) | 0.0407
CGGTCGACATGGACCGGTTTTCCCGGTAATCCGTATTTGTT (site CGATCGACTAA) | 0.0167
CGGTCGACATGGACCGGTTTTCCCGGTAATCCGTATTTGTT (site CGCTCGACTAA) | 0.00476
CGGTCGACATGGACCGGTTTTCCCGGTAATCCGTATTTGTT (site CGGTCGACTAA) | 0.226
CGGTCGACATGGACCGGTTTTCCCGGTAATCCGTATTTGTT (site CGTTCGACTAA) | 0.00264
CGGTGGACATGGACCGGTTTTCCCGGTAATCCGTATTTGTC (site CGGTGGACTGA) | 2.27
CGGTTCCCATGGACCGGTTTTCCCGGTAATCCGTATTTGTG (site AGGTTCCCTCA) | 0.0113
CGGTTCCCATGGACCGGTTTTCCCGGTAATCCGTATTTGTG (site CGGTTCCCTCA) | 0.0387
CGGTTCCCATGGACCGGTTTTCCCGGTAATCCGTATTTGTG (site GGGTTCCCTCA) | 0.0355
CGGTTCCCATGGACCGGTTTTCCCGGTAATCCGTATTTGTG (site TGGTTCCCTCA) | 0.0119

Source: the supplement of paper PMC11208160
